Cc1cc(C(=O)O)ccc1[N+](=O)[O-]
Settings	solubility (mole fraction)
in 1,4-dioxane, 283.15 K	0.0407
in 1,4-dioxane, 285.65 K	0.0428
in 1,4-dioxane, 288.15 K	0.0448
in 1,4-dioxane, 290.65 K	0.0469
in 1,4-dioxane, 293.15 K	0.0493
in 1,4-dioxane, 295.65 K	0.0519
in 1,4-dioxane, 298.15 K	0.0545
in 1,4-dioxane, 300.65 K	0.0571
in 1,4-dioxane, 303.15 K	0.06
in 1,4-dioxane, 305.65 K	0.0628
in 1,4-dioxane, 308.15 K	0.0658
in 1,4-dioxane, 310.65 K	0.0688
in 1,4-dioxane, 313.15 K	0.0718
in 1,4-dioxane, 315.65 K	0.0754
in 1,4-dioxane, 318.15 K	0.0802
in DMF, 283.15 K	0.0677
in DMF, 285.65 K	0.0709
in DMF, 288.15 K	0.0754
in DMF, 290.65 K	0.0795
in DMF, 293.15 K	0.0845
in DMF, 295.65 K	0.0908
in DMF, 298.15 K	0.0975
in DMF, 300.65 K	0.104
in DMF, 303.15 K	0.111
in DMF, 305.65 K	0.118
in DMF, 308.15 K	0.126
in DMF, 310.65 K	0.135
in DMF, 313.15 K	0.142
in DMF, 315.65 K	0.152
in DMF, 318.15 K	0.162
in NMP, 283.15 K	0.0856
in NMP, 285.65 K	0.0872
in NMP, 288.15 K	0.09
in NMP, 290.65 K	0.0933
in NMP, 293.15 K	0.0965
in NMP, 295.65 K	0.1
in NMP, 298.15 K	0.105
in NMP, 300.65 K	0.109
in NMP, 303.15 K	0.113
in NMP, 305.65 K	0.118
in NMP, 308.15 K	0.123
in NMP, 310.65 K	0.128
in NMP, 313.15 K	0.133
in NMP, 315.65 K	0.138
in NMP, 318.15 K	0.145
in acetone, 283.15 K	0.0204
in acetone, 285.65 K	0.0212
in acetone, 288.15 K	0.022
in acetone, 290.65 K	0.0228
in acetone, 293.15 K	0.0238
in acetone, 295.65 K	0.0247
in acetone, 298.15 K	0.026
in acetone, 300.65 K	0.0273
in acetone, 303.15 K	0.0285
in acetone, 305.65 K	0.0299
in acetone, 308.15 K	0.0311
in acetone, 310.65 K	0.0325
in acetone, 313.15 K	0.0338
in acetone, 315.65 K	0.0353
in acetone, 318.15 K	0.0372
in acetonitrile, 283.15 K	0.00255
in acetonitrile, 285.65 K	0.00276
in acetonitrile, 288.15 K	0.00302
in acetonitrile, 290.65 K	0.00328
in acetonitrile, 293.15 K	0.00355
in acetonitrile, 295.65 K	0.00382
in acetonitrile, 298.15 K	0.00412
in acetonitrile, 300.65 K	0.00438
in acetonitrile, 303.15 K	0.00469
in acetonitrile, 305.65 K	0.00498
in acetonitrile, 308.15 K	0.00529
in acetonitrile, 310.65 K	0.00564
in acetonitrile, 313.15 K	0.00598
in acetonitrile, 315.65 K	0.00638
in acetonitrile, 318.15 K	0.00688
in ethanol, 283.15 K	0.00751
in ethanol, 285.65 K	0.0078
in ethanol, 288.15 K	0.00818
in ethanol, 290.65 K	0.00866
in ethanol, 293.15 K	0.00915
in ethanol, 295.65 K	0.00964
in ethanol, 298.15 K	0.0102
in ethanol, 300.65 K	0.0108
in ethanol, 303.15 K	0.0113
in ethanol, 305.65 K	0.0119
in ethanol, 308.15 K	0.0125
in ethanol, 310.65 K	0.0132
in ethanol, 313.15 K	0.0138
in ethanol, 315.65 K	0.0146
in ethanol, 318.15 K	0.0155
in ethyl acetate, 283.15 K	0.0106
in ethyl acetate, 285.65 K	0.0111
in ethyl acetate, 288.15 K	0.0116
in ethyl acetate, 290.65 K	0.0123
in ethyl acetate, 293.15 K	0.0127
in ethyl acetate, 295.65 K	0.0134
in ethyl acetate, 298.15 K	0.014
in ethyl acetate, 300.65 K	0.0146
in ethyl acetate, 303.15 K	0.0153
in ethyl acetate, 305.65 K	0.0159
in ethyl acetate, 308.15 K	0.0167
in ethyl acetate, 310.65 K	0.0175
in ethyl acetate, 313.15 K	0.0185
in ethyl acetate, 315.65 K	0.0193
in ethyl acetate, 318.15 K	0.0205
in isopropanol, 283.15 K	0.00877
in isopropanol, 285.65 K	0.00915
in isopropanol, 288.15 K	0.00966
in isopropanol, 290.65 K	0.0102
in isopropanol, 293.15 K	0.0108
in isopropanol, 295.65 K	0.0115
in isopropanol, 298.15 K	0.0122
in isopropanol, 300.65 K	0.0129
in isopropanol, 303.15 K	0.0136
in isopropanol, 305.65 K	0.0143
in isopropanol, 308.15 K	0.0151
in isopropanol, 310.65 K	0.016
in isopropanol, 313.15 K	0.0169
in isopropanol, 315.65 K	0.0181
in isopropanol, 318.15 K	0.0192
in methanol, 283.15 K	0.00606
in methanol, 285.65 K	0.00664
in methanol, 288.15 K	0.00734
in methanol, 290.65 K	0.00809
in methanol, 293.15 K	0.00879
in methanol, 295.65 K	0.00956
in methanol, 298.15 K	0.0104
in methanol, 300.65 K	0.0111
in methanol, 303.15 K	0.012
in methanol, 305.65 K	0.0129
in methanol, 308.15 K	0.0137
in methanol, 310.65 K	0.0147
in methanol, 313.15 K	0.0158
in methanol, 315.65 K	0.0169
in methanol, 318.15 K	0.0184
in n-butanol, 283.15 K	0.00676
in n-butanol, 285.65 K	0.00725
in n-butanol, 288.15 K	0.00789
in n-butanol, 290.65 K	0.00844
in n-butanol, 293.15 K	0.00913
in n-butanol, 295.65 K	0.00994
in n-butanol, 298.15 K	0.0108
in n-butanol, 300.65 K	0.0116
in n-butanol, 303.15 K	0.0125
in n-butanol, 305.65 K	0.0134
in n-butanol, 308.15 K	0.0144
in n-butanol, 310.65 K	0.0153
in n-butanol, 313.15 K	0.0163
in n-butanol, 315.65 K	0.0174
in n-butanol, 318.15 K	0.0188
in n-propanol, 283.15 K	0.00726
in n-propanol, 285.65 K	0.00765
in n-propanol, 288.15 K	0.00815
in n-propanol, 290.65 K	0.00866
in n-propanol, 293.15 K	0.00914
in n-propanol, 295.65 K	0.00966
in n-propanol, 298.15 K	0.0103
in n-propanol, 300.65 K	0.0109
in n-propanol, 303.15 K	0.0115
in n-propanol, 305.65 K	0.0121
in n-propanol, 308.15 K	0.0129
in n-propanol, 310.65 K	0.0137
in n-propanol, 313.15 K	0.0145
in n-propanol, 315.65 K	0.0155
in n-propanol, 318.15 K	0.0164
in toluene, 283.15 K	0.0165
in toluene, 285.65 K	0.0174
in toluene, 288.15 K	0.0184
in toluene, 290.65 K	0.0191
in toluene, 293.15 K	0.0202
in toluene, 295.65 K	0.0211
in toluene, 298.15 K	0.0221
in toluene, 300.65 K	0.0231
in toluene, 303.15 K	0.0243
in toluene, 305.65 K	0.0253
in toluene, 308.15 K	0.0265
in toluene, 310.65 K	0.0279
in toluene, 313.15 K	0.0295
in toluene, 315.65 K	0.0314
in toluene, 318.15 K	0.0333

From BigSolDB 2.1
